Test results published in ChEMBL document CHEMBL2390860, “Chemical constituents from Nelumbo nucifera leaves and their anti-obesity effects” (Bioorg Med Chem Lett, 2013).
Calls of active or inactive are those of the source. No cut-off for these calls is given here.

Experiments:
[1] = target: T1, Pancreatic triacylglycerol lipase (Sus scrofa) (UniProt P00591); test: Inhibition of porcine pancreatic lipase using para-nitrophenyl butyrate as substrate at 100 uM by ELISA
T1 sequence (whole entry): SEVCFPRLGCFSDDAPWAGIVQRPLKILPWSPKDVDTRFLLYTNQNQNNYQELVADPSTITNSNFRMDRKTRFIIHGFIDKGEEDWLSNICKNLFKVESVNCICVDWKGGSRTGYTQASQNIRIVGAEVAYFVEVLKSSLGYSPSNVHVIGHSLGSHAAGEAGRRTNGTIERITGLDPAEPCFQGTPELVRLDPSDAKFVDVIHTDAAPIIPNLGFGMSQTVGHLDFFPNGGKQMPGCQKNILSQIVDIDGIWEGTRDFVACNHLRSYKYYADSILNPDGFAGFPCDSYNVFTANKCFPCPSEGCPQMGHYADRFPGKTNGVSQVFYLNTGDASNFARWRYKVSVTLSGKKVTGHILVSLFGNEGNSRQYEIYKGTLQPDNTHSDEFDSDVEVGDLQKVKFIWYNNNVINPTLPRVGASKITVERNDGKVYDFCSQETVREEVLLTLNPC

3T3-L1 = test: Antiobesity activity in mouse 3T3L1 cells assessed as reduction of fat accumulation at 100 uM by oil Red O staining-based ELISA; assay type: functional, cell-based

Row | SMILES | Lipase inhibition (active/not active) [1] | Activity (3T3-L1)
1 | CC(=O)/C=C/[C@@]12O[C@]1(C)C[C@@H](O[C@@H]1O[C@H](CO)[C@@H](O)[C@H](O)[C@H]1O)CC2(C)C | inactive | inactive
2 | O=C1CC[C@@H]2c3cc(O)c(O)cc3CCN12 | Active | 
3 | O=c1c(O)c(-c2ccc(O)c(O)c2)oc2cc(O)cc(O)c12 | Active | Active
4 | O=c1c(O[C@@H]2O[C@H](CO)[C@@H](O)[C@H](O)[C@H]2O)c(-c2ccc(O)c(O)c2)oc2cc(O)cc(O)c12 | inactive | Active
5 | CC(=O)/C=C/[C@]1(O)[C@@H](C)C[C@@H](O)CC1(C)C | inactive | inactive
6 | CC(=O)/C=C\[C@@H]1[C@@H](C)C[C@@H](O[C@@H]2O[C@H](CO)[C@@H](O)[C@H](O)[C@H]2O)CC1(C)C | inactive | inactive
7 | O=C1c2c(O)cc(O)cc2O[C@@H](c2ccc(O)c(O)c2)[C@H]1O | Active | Active
8 | O=c1cc(-c2ccc(O)c(O)c2)oc2cc(O)cc(O)c12 | Active | Active
9 | O=c1c(O[C@@H]2O[C@H](CO)[C@@H](O)[C@H](O)[C@H]2O)c(-c2ccc(O)cc2)oc2cc(O)cc(O)c12 | inactive | Active
10 | O=C1c2c(O)cc(O)cc2O[C@H](c2ccc(O)c(O)c2)[C@H]1O | Active | 
11 | CC1(C)C[C@@H](O)C[C@@]2(C)OC(=O)C=C12 | inactive | inactive
12 | COc1cc2c3c(c1OC)C1(C=CC(=O)C=C1)C[C@H]3N(C)CC2 | Active | 
13 | Oc1cc(O)c2c(c1)O[C@@H](c1ccc(O)c(O)c1)[C@H](O)C2 | Active | 
14 | CC1=CC(=O)CC(C)(C)/C1=C/C[C@H](C)O | inactive | inactive
15 | CC1=CC(=O)CC(C)(C)[C@@]1(O)/C=C/[C@@H](C)O | inactive | inactive
16 | CC1=C2C[C@@H](C(C)(C)O[C@@H]3O[C@H](CO)[C@@H](O)[C@H](O)[C@H]3O)CC[C@@]2(C)CCC1=O | inactive | inactive

Row | SMILES | Lipase inhibition (active/not active) [1] | Activity (3T3-L1)
17 | CC(=O)/C=C/[C@@]12O[C@]1(C)C[C@@H](O)CC2(C)C | inactive | Active
18 | C[N+]1([O-])CCc2cc3c(c4c2[C@H]1Cc1ccccc1-4)OCO3 (some centres undefined) | Active | Active
19 | COc1cc(-c2oc3cc(O[C@@H]4O[C@H](CO)[C@@H](O)[C@H](O)[C@H]4O)cc(O)c3c(=O)c2O)ccc1O | inactive | Active
20 | CC(=O)C=C=C1C(C)(C)C[C@H](O)C[C@]1(C)O | inactive | inactive
21 | Oc1ccc([C@H]2Oc3c(O)c(O)c(O)c(O)c3C[C@@H]2O)cc1O | Active | 
22 | CC(=O)/C=C/[C@H]1C(C)=C[C@H](O[C@@H]2O[C@H](CO)[C@@H](O)[C@H](O)[C@H]2O)CC1(C)C | inactive | inactive
23 | COc1cc(/C=C/C(=O)NCCc2ccc(O)cc2)ccc1O | Active | inactive
24 | O=C(/C=C/c1ccc(O)cc1)NCCc1ccc(O)cc1 | Active | inactive
25 | O=C(/C=C\c1ccc(O)cc1)NCCc1ccc(O)cc1 | Active | inactive
26 | CC(=O)/C=C/[C@]12O[C@@]1(C)C[C@@H](O)CC2(C)C | inactive | Active
27 | CC(=O)C=C=C1C(C)(C)C[C@H](O)C[C@@]1(C)O | inactive | inactive
28 | CC(=O)/C=C/[C@@]1(O)C(C)=CC(=O)CC1(C)C | inactive | inactive
29 | COc1cc(/C=C\C(=O)NCCc2ccc(O)cc2)ccc1O | Active | inactive
30 | O=c1c(O)c(-c2ccc(O)cc2)oc2cc(O)cc(O)c12 | Active | Active
31 | CC(=O)/C=C/[C@H]1[C@H](C)C[C@H](O)CC1(C)C | inactive | inactive
32 | O=C1c2ccccc2-c2c3c(cc4ccnc1c24)OCO3 | Active | Active
